Laboratory results as given in patent publication US10968225B2, “Compounds and compositions for the treatment of cystic fibrosis” (Fondazione Istituto Italiano Di Tecnologia, priority 2017, dated 2021).
Where a name gives a salt, the structure may show the parent alone.

Target: T1, mutant CFTR (Homo sapiens, UniProt P13569, DEL508-508)
T1 construct: expressed in transfected cells
Experiment: Fluorescence (HS-YFP) assay for CFTR activity, corrector assay
Type: cell-based
Settings: CFBE41o- and FRT cells with stable expression of mutant CFTR, read-out: activity (EC50)

T1 sequence (P13569 with tags, fused parts or gaps DEL508-508): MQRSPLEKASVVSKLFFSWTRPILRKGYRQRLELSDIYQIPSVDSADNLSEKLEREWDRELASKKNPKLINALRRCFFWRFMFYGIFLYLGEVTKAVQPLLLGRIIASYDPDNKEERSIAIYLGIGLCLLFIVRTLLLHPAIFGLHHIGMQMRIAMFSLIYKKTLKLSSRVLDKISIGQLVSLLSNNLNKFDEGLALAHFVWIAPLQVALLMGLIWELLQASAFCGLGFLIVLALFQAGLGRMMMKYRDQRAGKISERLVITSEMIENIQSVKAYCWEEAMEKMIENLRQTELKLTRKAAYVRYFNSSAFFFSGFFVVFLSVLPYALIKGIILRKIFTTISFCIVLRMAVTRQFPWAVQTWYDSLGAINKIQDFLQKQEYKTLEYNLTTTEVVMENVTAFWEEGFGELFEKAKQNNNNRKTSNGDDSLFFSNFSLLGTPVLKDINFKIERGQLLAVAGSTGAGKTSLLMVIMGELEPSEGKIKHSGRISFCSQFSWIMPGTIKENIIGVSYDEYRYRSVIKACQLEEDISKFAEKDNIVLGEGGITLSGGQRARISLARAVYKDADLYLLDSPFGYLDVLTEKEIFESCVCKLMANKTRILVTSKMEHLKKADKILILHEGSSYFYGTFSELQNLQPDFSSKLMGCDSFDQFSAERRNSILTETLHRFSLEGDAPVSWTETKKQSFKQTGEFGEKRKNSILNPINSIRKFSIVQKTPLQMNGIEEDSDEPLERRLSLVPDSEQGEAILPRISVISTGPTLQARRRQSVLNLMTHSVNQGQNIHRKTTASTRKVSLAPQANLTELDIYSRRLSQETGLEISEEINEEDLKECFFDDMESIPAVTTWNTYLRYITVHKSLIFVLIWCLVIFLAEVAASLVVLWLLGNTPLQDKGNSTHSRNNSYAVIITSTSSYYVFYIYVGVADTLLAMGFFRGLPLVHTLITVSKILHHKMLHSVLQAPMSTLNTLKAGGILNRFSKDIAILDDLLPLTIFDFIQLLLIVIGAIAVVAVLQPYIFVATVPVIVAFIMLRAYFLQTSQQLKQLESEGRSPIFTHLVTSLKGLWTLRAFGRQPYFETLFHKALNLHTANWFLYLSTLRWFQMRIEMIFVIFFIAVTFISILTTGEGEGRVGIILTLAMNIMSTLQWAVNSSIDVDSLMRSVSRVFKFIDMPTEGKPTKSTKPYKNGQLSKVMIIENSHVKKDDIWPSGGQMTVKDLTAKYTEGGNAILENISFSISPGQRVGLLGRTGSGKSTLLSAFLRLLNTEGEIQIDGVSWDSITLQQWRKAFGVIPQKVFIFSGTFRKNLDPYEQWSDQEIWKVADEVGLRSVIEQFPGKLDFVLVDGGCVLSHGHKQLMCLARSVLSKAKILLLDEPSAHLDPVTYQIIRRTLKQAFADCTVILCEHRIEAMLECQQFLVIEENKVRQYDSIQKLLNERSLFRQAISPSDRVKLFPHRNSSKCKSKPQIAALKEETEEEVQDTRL

SMILES | EC50
Cc1nc2ncc(N(C)C(=O)c3cccc(-n4nc(C(F)(F)F)c5c4C(Oc4ccc(C(=O)O)cc4)CCC5)c3)cc2o1 (single isomer, unassigned) [Compound 286, (R) or (S)-4-[[1-[3-[Methyl-(2-methyloxazolo[4,5-b]pyridin-6-yl)carbamoyl]phenyl]-3-(trifluoromethyl)-4,5,6,7-tetrahydroindazol-7-yl]oxy]benzoic acid] | 1 to 2 µM
Cc1nc2ncc(N(C)C(=O)c3cccc(-n4nc(C(F)(F)F)c5c4C(Oc4ccc(C(=O)O)cc4)CCC5)c3)cc2o1 (single isomer, unassigned) [Compound 287, (S) or (R)-4-[[1-[3-[Methyl-(2-methyloxazolo[4,5-b]pyridin-6-yl)carbamoyl]phenyl]-3-(trifluoromethyl)-4,5,6,7-tetrahydroindazol-7-yl]oxy]benzoic acid] | < 1 µM
CN(C(=O)c1cccc(-n2nc(C(F)(F)F)c3c2C(Oc2ccc(C(=O)O)cc2)CCC3)c1)c1ccnc(OC(F)F)c1 (single isomer, unassigned) [Compound 288, (R) or (S)-4-[[1-[3-[[2-(Difluoromethoxy)-4-pyridyl]-methyl-carbamoyl]phenyl]-3-(trifluoromethyl)-4,5,6,7-tetrahydroindazol-7-yl]oxy]benzoic acid] | < 1 µM
CN(C(=O)c1cccc(-n2nc(C(F)(F)F)c3c2C(Oc2ccc(C(=O)O)cc2)CCC3)c1)c1ccnc(OC(F)F)c1 (single isomer, unassigned) [Compound 289, (S) or (R)-4-[[1-[3-[[2-(Difluoromethoxy)-4-pyridyl]-methyl-carbamoyl]phenyl]-3-(trifluoromethyl)-4,5,6,7-tetrahydroindazol-7-yl]oxy]benzoic acid] | < 1 µM
CN(C(=O)c1cccc(-n2nc(C(F)(F)F)c3c2C(Oc2ccc(C(=O)O)cc2)COC3)c1)c1ccnc(OC(F)F)c1 (single isomer, unassigned) [Compound 290, (R) or (S)-4-[[1-[3-[[2-(Difluoromethoxy)-4-pyridyl]-methyl-carbamoyl]phenyl]-3-(trifluoromethyl)-6,7-dihydro-4H-pyrano[4,3-c]pyrazol-7-yl]oxy]benzoic acid] | < 1 µM
CN(C(=O)c1cccc(-n2nc(C(F)(F)F)c3c2C(Oc2ccc(C(=O)O)cc2)COC3)c1)c1ccnc(OC(F)F)c1 (single isomer, unassigned) [Compound 291, (S) or (R)-4-[[1-[3-[[2-(difluoromethoxy)-4-pyridyl]-methyl-carbamoyl]phenyl]-3-(trifluoromethyl)-6,7-dihydro-4H-pyrano[4,3-c]pyrazol-7-yl]oxy]benzoic acid] | 1 to 2 µM
CN(C(=O)c1cccc(-n2nc(C(F)(F)F)c3c2C(Oc2ncc(C(=O)O)cn2)COC3)c1)c1ccc2c(c1)OCC2 (single isomer, unassigned) [Compound 298, (R) or (S)-2-[[1-[3-[2,3-dihydrobenzofuran-6-yl(methyl)carbamoyl]phenyl]-3-(trifluoromethyl)-6,7-dihydro-4H-pyrano[4,3-c]pyrazol-7-yl]oxy]pyrimidine-5-carboxylic acid] | < 1 µM
CN(C(=O)c1cccc(-n2nc(C(F)(F)F)c3c2C(Oc2ncc(C(=O)O)cn2)COC3)c1)c1ccc2c(c1)OCC2 (single isomer, unassigned) [Compound 299, (S) or (R)-2-[[1-[3-[2,3-dihydrobenzofuran-6-yl(methyl)carbamoyl]phenyl]-3-(trifluoromethyl)-6,7-dihydro-4H-pyrano[4,3-c]pyrazol-7-yl]oxy]pyrimidine-5-carboxylic acid] | 1 to 2 µM
CN(C(=O)c1cccc(-n2nc(C(F)(F)F)c3c2C(Oc2ccc(CO)cc2)CCC3)c1)c1ccc2c(c1)OC(F)(F)O2 (stereo in doubt) [Compound 304, N-(2,2-Difluoro-1,3-benzodioxol-5-yl)-3-[(S)-7-[4-(hydroxymethyl)phenoxy]-3-(trifluoromethyl)-4,5,6,7-tetrahydroindazol-1-yl]-N-methyl-benzamide] | < 1 µM
CN(C(=O)c1cccc(-n2nc(C(F)(F)F)c3c2CCN(C(=O)OC(C)(C)C)C3)c1)c1ccc2c(c1)OCO2 [Compound 001, Tert-butyl 1-[3-[1,3-benzodioxol-5-yl(methyl)carbamoyl]phenyl]-3-(trifluoromethyl)-6,7-dihydro-4H-pyrazolo[4,3-c]pyridine-5-carboxylate] | < 1 µM
CN(C(=O)c1cccc(-n2nc(C(F)(F)F)c3c2CCNC3)c1)c1ccc2c(c1)OCO2 [Compound 002, N-(1,3-Benzodioxol-5-yl)-N-methyl-3-[3-(trifluoromethyl)-4,5,6,7-tetrahydropyrazolo[4,3-c]pyridin-1-yl] benzamide hydrochloride] | < 1 µM
CC(=O)N1CCc2c(c(C(F)(F)F)nn2-c2cccc(C(=O)N(C)c3ccc4c(c3)OCO4)c2)C1 [Compound 004, 3-[5-Acetyl-3-(trifluoromethyl)-6,7-dihydro-4H-pyrazolo[4,3-c]pyridin-1-yl]-N-(1,3-benzodioxol-5-yl)-N-methyl-benzamide] | < 1 µM
CN(C(=O)c1cccc(-n2nc(C(F)(F)F)c3c2CCCC3)c1)c1ccc2c(c1)OCO2 [Compound 005, N-(1,3-Benzodioxol-5-yl)-N-methyl-3-[3-(trifluoromethyl)-4,5,6,7-tetrahydroindazol-1-yl]benzamide] | < 1 µM
CN(C(=O)c1cccc(-n2nc(C(F)(F)F)c3c2CCN(S(C)(=O)=O)C3)c1)c1ccc2c(c1)OCO2 [Compound 006, N-(1,3-Benzodioxol-5-yl)-N-methyl-3-[5-methylsulfonyl-3-(trifluoromethyl)-6,7-dihydro-4H-pyrazolo[4,3-c]pyridin-1-yl]benzamide] | < 1 µM
CN(C(=O)c1cccc(-n2nc(C(F)(F)F)c3c2CCN(S(=O)(=O)c2ccccc2)C3)c1)c1ccc2c(c1)OCO2 [Compound 007, 3-[5-(Benzenesulfonyl)-3-(trifluoromethyl)-6,7-dihydro-4H-pyrazolo[4,3-c]pyridin-1-yl]-N-(1,3-benzodioxol-5-yl)-N-methyl-benzamide] | < 1 µM
CN(C(=O)c1cccc(-n2nc(C(F)(F)F)c3c2CCN(C(=O)c2ccccc2)C3)c1)c1ccc2c(c1)OCO2 [Compound 008, N-(1,3-Benzodioxol-5-yl)-3-[5-benzoyl-3-(trifluoromethyl)-6,7-dihydro-4H-pyrazolo[4,3-c]pyridin-1-yl]-N-methyl-benzamide] | < 1 µM
COC(=O)N1CCc2c(c(C(F)(F)F)nn2-c2cccc(C(=O)N(C)c3ccc4c(c3)OCO4)c2)C1 [Compound 009, Methyl 1-[3-[1,3-benzodioxol-5-yl(methyl)carbamoyl]phenyl]-3-(trifluoromethyl)-6,7-dihydro-4H-pyrazolo[4,3-c] pyridine-5-carboxylate] | < 1 µM
CN(C(=O)c1cccc(-n2nc(C(F)(F)F)c3c2CCN(C[C@@H]2COC(C)(C)O2)C3)c1)c1ccc2c(c1)OCO2 [Compound 013, N-(1,3-Benzodioxol-5-yl)-3-[5-[[(4R)-2,2-dimethyl-1,3-dioxolan-4-yl]methyl]-3-(trifluoromethyl)-6,7-dihydro-4H-pyrazolo[4,3-c]pyridin-1-yl]-N-methyl-benzamide] | < 1 µM
CN(C(=O)c1cccc(-n2nc(C(F)(F)F)c3c2CCN(C[C@H]2COC(C)(C)O2)C3)c1)c1ccc2c(c1)OCO2 [Compound 014, N-(1,3-Benzodioxol-5-yl)-3-[5-[[(4S)-2,2-dimethyl-1,3-dioxolan-4-yl]methyl]-3-(trifluoromethyl)-6,7-dihydro-4H-pyrazolo[4,3-c]pyridin-1-yl]-N-methyl-benzamide] | < 1 µM
CN(C(=O)c1cccc(-n2nc(C(F)(F)F)c3c2CCN(C[C@@H](O)CO)C3)c1)c1ccc2c(c1)OCO2 [Compound 015, N-(1,3-Benzodioxol-5-yl)-3-[5-[(2R)-2,3-dihydroxypropyl]-3-(trifluoromethyl)-6,7-dihydro-4H-pyrazolo[4,3-c]pyridin-1-yl]-N-methyl-benzamide] | < 1 µM
CN(C(=O)c1cccc(-n2nc(C(F)(F)F)c3c2CCN(C[C@H](O)CO)C3)c1)c1ccc2c(c1)OCO2 [Compound 016, N-(1,3-Benzodioxol-5-yl)-3-[5-[(2S)-2,3-dihydroxypropyl]-3-(trifluoromethyl)-6,7-dihydro-4H-pyrazolo[4,3-c]pyridin-1-yl]-N-methyl-benzamide] | < 1 µM
CN1CCOc2c(c(C(F)(F)F)nn2-c2cccc(C(=O)N(C)c3ccc4c(c3)OCO4)c2)C1 [Compound 017, N-(1,3-Benzodioxol-5-yl)-N-methyl-3-[5-methyl-3-(trifluoromethyl)-6,7-dihydro-4H-pyrazolo[4,3-f][1,4]oxazepin-1-yl]benzamide] | < 1 µM
CN(C(=O)c1cccc(-n2nc(C(F)(F)F)c3c2CCN(CC2CC2)C3)c1)c1ccc2c(c1)OCO2 [Compound 019, N-(1,3-Benzodioxol-5-yl)-3-[5-(cyclopropylmethyl)-3-(trifluoromethyl)-6,7-dihydro-4H-pyrazolo[4,3-c]pyridin-1-yl]-N-methyl-benzamide] | < 1 µM
CC(C)N1CCc2c(c(C(F)(F)F)nn2-c2cccc(C(=O)N(C)c3ccc4c(c3)OCO4)c2)C1 [Compound 021, N-(1,3-Benzodioxol-5-yl)-3-[5-isopropyl-3-(trifluoromethyl)-6,7-dihydro-4H-pyrazolo[4,3-c]pyridin-1-yl]-N-methyl-benzamide] | < 1 µM
CN(C(=O)c1cccc(-n2nc(C(F)(F)F)c3c2CCN(Cc2cccc(C(=O)O)c2)C3)c1)c1ccc2c(c1)OCO2 [Compound 025, 3-[[1-[3-[1,3-Benzodioxol-5-yl(methyl)carbamoyl]phenyl]-3-(trifluoromethyl)-6,7-dihydro-4H-pyrazolo[4,3-c]pyridin-5-yl]methyl]benzoic acid] | < 1 µM
CN(C(=O)c1cccc(-n2nc(C(F)(F)F)c3c2CCN(Cc2ccc(C(=O)O)cc2)C3)c1)c1ccc2c(c1)OCO2 [Compound 026, 4-[[1-[3-[1,3-Benzodioxol-5-yl(methyl)carbamoyl]phenyl]-3-(trifluoromethyl)-6,7-dihydro-4H-pyrazolo[4,3-c]pyridin-5-yl]methyl]benzoic acid] | < 1 µM
